From patent US7858322B2, “Method of determining inhibition of binding to TRPM7 protein” (NoNo, Inc., priority 2003, dated 2010)

Tested on: cultured neurons
Assay: Neuronal survival 20 h after 1 h NMDA challenge
Assay type: cell-based
Conditions: peptide applied immediately after the NMDA challenge; FIG. 14
Description: The sequence of Tat-9cTRPM7 is: [[…] or [[…]-[…]] (SEQ ID NO:258), whereby the first 11 residues correspond to the cell membrane transduction domain of the human immunodeficiency virus type 1 (HIV-1) Tat protein and the last 9 residues correspond to the last 9 amino acids of the C-terminus of human TRPM7 (accession Q96QT4). […] (A) Neuronal survival at 20 h in the indicated concentrations of Tat-9cTRPM7 in the absence of excitotoxic challenge. (B) Neuronal survival 20 h after challenging the cultures for 1 h with the indicated concentration of NMDA. Tat-9cTRPM7 was applied immediately after the NMDA challenge.
The sequence of Tat-9cTRPM7 is: [[…]-[…]; SEQ ID NO:258], whereby the first 11 residues correspond to the cell-membrane transduction domain of the human immunodeficiency virus type 1 (HIV-1) Tat protein and the last 9 residues correspond to the last 9 amino acids of the C-terminus of human TRPM7 (accession Q96QT4). (A) Neuronal survival at 20 h in the indicated concentrations of Tat-9cTRPM7 in the absence of excitotoxic challenge. (B) Neuronal survival 20 h after challenging the cultures for 1 h with the indicated concentration of NMDA. Tat-9cTRPM7 was applied immediately after the NMDA challenge.

YGRKKRRQRRR-STNSVRLML (YGRKKRRQRRRSTNSVRLML) [Tat-9cTRPM7, HIV-1 Tat transduction domain fused to last 9 amino acids of human TRPM7]
Neuronal survival 20 h after challenging the cultures for 1 h with NMDA: enhanced survival when challenged with NMDA
